This note sets out measurements from patent US9657014B2, “Substituted 1,6-naphthyridines” (Hoffmann-La Roche Inc., priority 2012, dated 2017).

This assay has as its system human embryonic stem cell derived neural stem cells (NSCs). The assay is described as follows: Neural stem cell proliferation assay (neurogenesis assay). It is filed as cell-based. The conditions noted are these: Homo sapiens, Neural stem cell, 96 h; Table 1, novel compounds; concentration at which 150% activity of control (100%) is reached; ATP levels (CellTiterGlo) after 4 days incubation. How it is done:
Neural Stem Cell Proliferation Assay
Neurogenic properties of small molecules are determined based on the proliferation of human embryonic stem cell derived neural stem cells (NSCs) which were derived via a dual smad inhibition as previously described (Chambers, S. M., et al., Highly efficient neural conversion of human ES and iPS cells by dual inhibition of SMAD signaling, Nature biotechnology, 2009. 27 (3): p. 275-80.)
Compounds respond is measured by the increase in cells based on ATP levels (Promega:CellTiterGlo®) after an incubation period of 4 days.
NSCs are thawed and expanded over 3 passages. On the 14th day, NSCs are seeded in Polyornithin/Laminin coated 384 well plates at a cell density of 21,000 cells/cm^2 in a media volume of 38 μl.
4 hours after cell seeding, compound solutions are added at a volume of 2 μl. Stock solutions of the compounds (water, 5% DMSO) are diluted to obtain a dose response (11 points, dilution factor is 2), ranging from 8 μM to 8 nM. Controls are run to consistently determine the neurogenic properties of the cells:
Negative (neutral) control is cell culture Media (final DMSO concentration: 0.25%).
Positive controls are: • 1. cell culture Media+100 ng/ml FGF2 (final DMSO concentration: 0.1%) • 2. cell culture Media+20 ng/ml EGF (final DMSO concentration: 0.1%) • 3. cell culture Media+100 ng/ml Wnt3a (final DMSO concentration: 0.1%)
After 4 days incubation at 37° C., 5% CO2, the amount of ATP per well is quantified. The ATP concentration is proportional to the cell number. ATP is quantified by using the Promega CellTiterGlo® kit. The CellTiterGlo® reagents contain a cell lysis buffer, a thermo stable luciferase (UltraGlo™ recombinant luciferase), magnesium and luciferin. Luciferin reacts with ATP producing oxyluciferin, AMP and light. The luminescence signal is proportional to the ATP content.
The value of negative (neutral) control is determined for each assay plate by taking the average of 16 negative control wells. The neurogenic compound response is calculated for each compound as (compound/Negative Control)*100.
The values of EC150 from the dose response curve are determined for each test compound. The EC150 is the compound concentration at which 150% activity of control (100%) is reached.
Molecule `O=C(NCc1ccncc1)c1ccc2cncc(-c3ccccc3Cl)c2n1` [Example 30, 8-(2-Chlorophenyl)-N-(pyridin-4-ylmethyl)-1,6-naphthyridine-2-carboxamide] gave an EC (150% of control) of 0.49 µM.
Molecule `NC(=O)c1ccc2cncc(-c3cccc(F)c3)c2n1` [Example 78, 8-(3-Fluorophenyl)-1,6-naphthyridine-2-carboxamide] came in with an EC (150% of control) of 0.05 µM.
For the molecule `CS(=O)(=O)CCNC(=O)c1ccc2cncc(-c3ccc(Cl)cc3)c2n1` [Example 72, 8-(4-Chlorophenyl)-N-(2-(methylsulfonyl)ethyl)-1,6-naphthyridine-2-carboxamide], the EC (150% of control) turned out to be 0.1 µM.
The value for `O=C(NCc1ccncc1)c1ccc2cncc(Br)c2n1` [Example 9, 8-Bromo-[1,6]naphthyridine-2-carboxylic acid (pyridin-4-ylmethyl)-amide] was 1.27 µM; that for `CS(=O)(=O)c1ccc(CNC(=O)c2ccc3cncc(-c4cccc(F)c4)c3n2)cc1` [Example 113, 8-(3-Fluorophenyl)-N-(4-(methylsulfonyl)benzyl)-1,6-naphthyridine-2-carboxamide] was 0.17 µM; that for `CN(C)c1cc(-c2cncc3ccc(C(N)=O)nc23)ccn1` [Example 140, 8-(2-(Dimethylamino)pyridin-4-yl)-1,6-naphthyridine-2-carboxamide] was 0.147 µM.
For `O=C(c1ccc2cncc(-c3ccc(Cl)cc3)c2n1)N1CCS(=O)(=O)CC1` [Example 74, [8-(4-Chloro-phenyl)-[1,6]naphthyridin-2-yl]-(1,1-dioxo-thiomorpholin-4-yl)-methanone] the value was 1.68 µM; for `CC(NC(=O)c1ccc2cncc(-c3ccc(Cl)cc3)c2n1)c1cccc(S(C)(=O)=O)c1` (single isomer, unassigned; (-)) [Example 52, (−)-8-(4-Chloro-phenyl)-[1,6]naphthyridine-2-carboxylic acid [(S or R)-1-(3-methanesulfonyl-phenyl)-ethyl]-amide], 0.8 µM.
The value for `Cc1ccc(-c2cncc3ccc(C(N)=O)nc23)cc1` [Example 80, 8-Tolyl-1,6-naphthyridine-2-carboxamide] was 0.03 µM; that for `COc1cccc(-c2cncc3ccc(C(=O)NCc4ccncc4)nc23)c1` [Example 26, 8-(3-Methoxyphenyl)-N-(pyridin-4-ylmethyl)-1,6-naphthyridine-2-carboxamide] was 0.28 µM.
`O=C(NCc1ccccc1)c1ccc2cncc(-c3ccc(Cl)cc3)c2n1` [Example 13, N-Benzyl-8-(4-chlorophenyl)-1,6-naphthyridine-2-carboxamide] yielded an EC (150% of control) of 0.05 µM.
As for `CC(C)(C)CNC(=O)c1ccc2cncc(-c3cc(F)ccc3F)c2n1` [Example 122, 8-(2,5-Difluorophenyl)-N-neopentyl-1,6-naphthyridine-2-carboxamide], the EC (150% of control) amounted to 0.12 µM.
Consider `O=C(NCc1ccccn1)c1ccc2cncc(-c3ccc(Cl)cc3)c2n1` [Example 46, 8-(4-Chlorophenyl)-N-(pyridin-2-ylmethyl)-1,6-naphthyridine-2-carboxamide], for which the EC (150% of control) stood at 0.51 µM.
For `COc1ccc(-c2cncc3ccc(C(=O)N(C)Cc4ccccc4)nc23)cc1` [Example 33, N-Benzyl-8-(4-methoxyphenyl)-N-methyl-1,6-naphthyridine-2-carboxamide] the value was 0.22 µM; for `O=C(NCC(F)(F)F)c1ccc2cncc(-c3cccc(F)c3)c2n1` [Example 123, 8-(3-Fluorophenyl)-N-(2,2,2-trifluoroethyl)-1,6-naphthyridine-2-carboxamide], 0.38 µM.
`NC(=O)c1ccc2cncc(-c3ccccc3F)c2n1` [Example 79, 8-(2-Fluorophenyl)-1,6-naphthyridine-2-carboxamide]: the EC (150% of control) came out at 0.03 µM.
The value for `CCCCCCNC(=O)c1ccc(-c2cncc3ccc(C(N)=O)nc23)cc1` [Example 147, 8-(4-(Hexylcarbamoyl)phenyl)-1,6-naphthyridine-2-carboxamide] was 0.09 µM; that for `COc1ccc(-c2cncc3ccc(C(=O)NCCC(F)(F)F)nc23)cc1` [Example 35, 8-(4-Methoxyphenyl)-N-(3,3,3-trifluoropropyl)-1,6-naphthyridine-2-carboxamide] was 1.74 µM; that for `CCCCCCNC(=O)Cc1cccc(-c2cncc3ccc(C(N)=O)nc23)c1` [Example 148, 8-(3-(2-(Hexylamino)-2-oxoethyl)phenyl)-1,6-naphthyridine-2-carboxamide] was 0.18 µM.
In turn, `NC(=O)c1ccc2cncc(-c3ccc(Cl)c(F)c3)c2n1` [Example 169, 8-(4-Chloro-3-fluorophenyl)-1,6-naphthyridine-2-carboxamide] yielded an EC (150% of control) of 0.03 µM.
`CC(NC(=O)c1ccc2cncc(-c3ccc(F)cc3F)c2n1)c1ccc(S(C)(=O)=O)cc1` (stereo not shown) [Example 110, 8-(2,4-Difluorophenyl)-N-(1-(4-(methylsulfonyl)phenyl)ethyl)-1,6-naphthyridine-2-carboxamide] returned an EC (150% of control) of 0.49 µM.
As for `CC(C)(C)NC(=O)c1ccc2cncc(-c3ccc(Cl)cc3)c2n1` [Example 69, N-tert-Butyl-8-(4-chlorophenyl)-1,6-naphthyridine-2-carboxamide], the EC (150% of control) turned out to be 0.32 µM.
In turn, `CS(=O)(=O)c1ccc(CNC(=O)c2ccc3cncc(-c4ccc(Cl)cc4)c3n2)cc1` [Example 50, 8-(4-Chlorophenyl)-N-(4-(methylsulfonyl)benzyl)-1,6-naphthyridine-2-carboxamide] yielded an EC (150% of control) of 0.32 µM.
The value for `O=C(NCc1ccccc1)c1ccc2cncc(-c3cccnc3)c2n1` [Example 17, N-Benzyl-8-(pyridin-3-yl)-1,6-naphthyridine-2-carboxamide] was 0.11 µM.
Turning to `CCCCCCC(=O)NCc1ccc(-c2cncc3ccc(C(N)=O)nc23)cc1` [Example 149, 8-(4-(Heptanamidomethyl)phenyl)-1,6-naphthyridine-2-carboxamide], the EC (150% of control) was determined as 0.07 µM.
`COCc1ccc(-c2cncc3ccc(C(N)=O)nc23)cc1` [Example 104, 8-(4-(Methoxymethyl)phenyl)-1,6-naphthyridine-2-carboxamide] displayed an EC (150% of control) of 0.02 µM.
In turn, `COCCNC(=O)c1ccc2cncc(-c3cccc(Cl)c3)c2n1` [Example 7, 8-(3-Chlorophenyl)-N-(2-methoxyethyl)-1,6-naphthyridine-2-carboxamide] gave an EC (150% of control) of 0.32 µM.
As to `Cc1cccc(-c2cncc3ccc(C(N)=O)nc23)c1` [Example 81, 8-m-Tolyl-1,6-naphthyridine-2-carboxamide], the EC (150% of control) was 0.05 µM.
As for `CC(C)(C)CNC(=O)c1ccc2cncc(-c3ccc(Cl)cc3)c2n1` [Example 68, 8-(4-Chlorophenyl)-N-neopentyl-1,6-naphthyridine-2-carboxamide], the EC (150% of control) was 0.07 µM.
For `NC(=O)c1ccc2cncc(-c3ccc(F)c(F)c3)c2n1` [Example 83, 8-(3,4-Difluorophenyl)-1,6-naphthyridine-2-carboxamide], the EC (150% of control) stood at 0.1 µM.
For `CS(=O)(=O)c1cccc(CNC(=O)c2ccc3cncc(-c4ccc(Cl)cc4)c3n2)c1` [Example 51, 8-(4-Chlorophenyl)-N-(3-(methylsulfonyl)benzyl)-1,6-naphthyridine-2-carboxamide] the value was 0.12 µM.
